# Reference: patent publication US20170283404A1, “CRYSTALLINE FORMS OF 2-(4-(4-ETHOXY-6-OXO-1,6-DIHYDROPYRIDIN-3-YL)-2-FLUOROPHENYL)-N-(5-(1,1,1-TRIFLUORO-2-METHYLPROPAN-2-YL)ISOXAZOL-3-YL)ACETAMIDE” (GLAXOSMITHKLINE INTELLECTUAL PROPERTY DEVELOPMENT LIMITED, priority 2014, published 2017)
# Assay: Drying of crystalline form in vacuum oven (solid-state stability)
# Format: physicochemical
# Details: vacuum oven at 50° C. with a nitrogen bleed for about 17 hours
structure (smiles),measurement,value
"CCOc1cc(=O)[nH]cc1-c1ccc(CC(=O)Nc2cc(C(C)(C)C(F)(F)F)on2)c(F)c1 [Compound A—Monohydrate, 2-(4-(4-ethoxy-6-oxo-1,6-dihydropyridin-3-yl)-2-fluorophenyl)-N-(5-(1,1,1-trifluoro-2-methylpropan-2-yl)isoxazol-3-yl)acetamide]",change in form by Raman or XRPD after drying,no change in form
same,change to the water content by TGA after drying,no change to the water content
